# *1 amine or outer side, *2 acyl side, *3 side chain or, on linkers, in order; H or OH if unused. Where a SMILES comes first, the peptide text is derived from it. Bridges are numbered along the chain shown (N, C = ends). [ ]: non-standard residue; d: D form. ξ: configuration not given here. X10 = CC(C)C[C@H](CC(=O)[C@H](Cc1cnc[nH]1)N[*:1])C(=O)[*:2]; Phe(3,4,5-F3) = N[C@@H](Cc1cc(F)c(F)c(F)c1)C(=O)O; NMePhe(4-F) = CN[C@@H](Cc1ccc(F)cc1)C(=O)O; Phe(4-F) = N[C@@H](Cc1ccc(F)cc1)C(=O)O; Phe(4-Me) = Cc1ccc(C[C@H](N)C(=O)O)cc1; Bta = N[C@@H](Cc1csc2ccccc12)C(=O)O; NMeIle(3ξ) = CCC(C)[C@H](NC)C(=O)O; Hyp = O=C(O)[C@@H]1C[C@@H](O)CN1; NMeF = CN[C@@H](Cc1ccccc1)C(=O)O; X1 = O=C([C@H]1COCCN1[*:1])[*:2]; hPhe = N[C@@H](CCc1ccccc1)C(=O)O; dHyp = O=C(O)[C@H]1C[C@H](O)CN1; Thr(3ξ) = CC(O)[C@H](N)C(=O)O; NMeNle = CCCC[C@H](NC)C(=O)O; dNle = CCCC[C@@H](N)C(=O)O; dPip = O=C(O)[C@H]1CCCCN1; NMeA = CN[C@@H](C)C(=O)O; Orn = NCCC[C@H](N)C(=O)O; dNMeA = CN[C@H](C)C(=O)O; Dab = NCC[C@H](N)C(=O)O; Dap = NC[C@H](N)C(=O)O; ξC = NC(CS)C(=O)O; Sar = CNCC(=O)O
# Target: T1, Human PD-L1/PD-1 (Homo sapiens, UniProt Q9NZQ7)
# T1 construct: TVMV protease cleavage site (C); made in house; host or cells: HEK293T cells
# T1 sequence (Q9NZQ7 with tags, fused parts or gaps): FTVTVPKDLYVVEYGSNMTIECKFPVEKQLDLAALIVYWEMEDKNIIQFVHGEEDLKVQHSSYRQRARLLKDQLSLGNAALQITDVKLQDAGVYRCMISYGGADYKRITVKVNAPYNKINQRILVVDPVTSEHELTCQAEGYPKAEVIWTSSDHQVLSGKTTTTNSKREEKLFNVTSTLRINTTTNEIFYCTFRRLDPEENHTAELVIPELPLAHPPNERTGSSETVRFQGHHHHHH
# Assay: HTRF Human PD-L1/PD-1 binding assay (PD-1-Ig/PD-L1-His)
# Settings: PD-L1-His 10 nM, PD-1-Ig 20 nM; class symbol; read-out: HTRF Human PD-L1/PD-1 Binding Assay IC50 Range
# How it was run: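 Competition of macrocyclic peptides for PD-1/PD-L1 binding measured by HTRF in dPBS containing 0.1% BSA and 0.05% Tween-20. Compound and PD-L1-His (10 nM final) incubated 15 min before PD-1-Ig (20 nM final) and a further 15 min.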
row,IC50,SMILES
1,10 to 99.9 nM,"CCCC[C@H]1C(=O)N(C)[C@H](C)C(=O)N[C@@H](CC(=O)O)C(=O)N[C@@H](C(C)C)C(=O)N(C)[C@@H](Cc2ccccc2)C(=O)N[C@@H](Cc2ccc(O)cc2)C(=O)N(C)[C@H](C)C(=O)N[C@@H](Cc2c[nH]c3ccccc23)C(=O)N[C@@H](Cc2ccc(O)cc2)C(=O)N[C@@H](CC(C)C)C(=O)N[C@H](C(=O)NCC(N)=O)CSCC(=O)N[C@@H](Cc2cc(F)c(F)c(F)c2)C(=O)N(C)[C@@H](Cc2ccccc2)C(=O)N1C [Example 3224] ({CH2CO}-[Phe(3,4,5-F3)][NMeF][NMeNle][dNMeA]DV[NMeF]Y[dNMeA]WYLCG-NH2; thioether N-13)"
2,1 to 9.9 nM,CCCC[C@H]1C(=O)N(C)[C@@H](CCCC)C(=O)N[C@@H](C(C)O)C(=O)N[C@H](C(=O)NCC(N)=O)CSCC(=O)N[C@@H](Cc2ccc(OC)cc2)C(=O)N(C)[C@@H](C)C(=O)N[C@@H](CC(N)=O)C(=O)N2CCC[C@H]2C(=O)N[C@@H](Cc2c[nH]cn2)C(=O)N[C@@H](CCC(N)=O)C(=O)N2C[C@H](O)C[C@H]2C(=O)N[C@@H](Cc2c[nH]c3ccccc23)C(=O)N[C@@H](CO)C(=O)N[C@@H](Cc2c[nH]c3ccccc23)C(=O)N1C (stereo partly drawn) [Example 7139] ({CH2CO}-Y(Me)[NMeA]NPHQ[Hyp]WSW[NMeNle][NMeNle][Thr(3ξ)]CG-NH2; thioether N-14)
3,1 to 9.9 nM,"CCCC[C@H]1C(=O)N2CCC[C@@H]2C(=O)N[C@@H](CC(=O)O)C(=O)N[C@@H](C(C)C)C(=O)N(C)[C@@H](Cc2ccccc2)C(=O)N[C@@H](CCC(=O)O)C(=O)N2CCCC[C@@H]2C(=O)N[C@@H](Cc2c[nH]c3ccccc23)C(=O)N[C@@H](Cc2ccc(O)cc2)C(=O)N[C@@H](CCN)C(=O)N[C@H](C(=O)NCC(N)=O)CSCC(=O)N[C@@H](Cc2cc(F)c(F)c(F)c2)C(=O)N(C)[C@@H](Cc2ccc(F)cc2)C(=O)N1C [Example 10568] ({CH2CO}-[Phe(3,4,5-F3)][NMePhe(4-F)][NMeNle][dP]DV[NMeF]E[dPip]WY[Dab]CG-NH2; thioether N-13)"
4,1 to 9.9 nM,"CCCC[C@H]1C(=O)N2CCC[C@@H]2C(=O)N[C@@H](CC(=O)O)C(=O)N[C@@H](C(C)C)C(=O)N(C)[C@@H](Cc2ccccc2)C(=O)N[C@@H](CCC(=O)O)C(=O)N2CCCC[C@@H]2C(=O)N[C@@H](Cc2c[nH]c3ccccc23)C(=O)N[C@@H](Cc2ccc(O)cc2)C(=O)N[C@@H](CCCCN)C(=O)N[C@H](C(=O)NCC(N)=O)CSCC(=O)N[C@@H](Cc2cc(F)c(F)c(F)c2)C(=O)N(C)[C@@H](Cc2ccc(F)cc2)C(=O)N1C [Example 10564] ({CH2CO}-[Phe(3,4,5-F3)][NMePhe(4-F)][NMeNle][dP]DV[NMeF]E[dPip]WYKCG-NH2; thioether N-13)"
5,1 to 9.9 nM,CCCC[C@H]1C(=O)N(C)[C@@H](CCCC)C(=O)N[C@@H](CCC(=O)O)C(=O)N[C@H](C(=O)NCC(N)=O)CSCC(=O)N[C@@H](Cc2ccc(O)cc2)C(=O)N(C)[C@@H](C)C(=O)N[C@@H](CC(=O)O)C(=O)N2CCC[C@H]2C(=O)N[C@@H](CN)C(=O)N[C@@H](CCC(=O)O)C(=O)N2C[C@H](O)C[C@H]2C(=O)N[C@@H](Cc2c[nH]c3ccccc23)C(=O)N[C@@H](CO)C(=O)N[C@@H](Cc2c[nH]c3ccccc23)C(=O)N1C [Example 5170] ({CH2CO}-Y[NMeA]DP[Dap]E[Hyp]WSW[NMeNle][NMeNle]ECG-NH2; thioether N-14)
6,1 to 9.9 nM,CCCC[C@H]1C(=O)N(C)[C@@H](CCCC)C(=O)N[C@@H](CCCNC(=N)N)C(=O)N[C@H](C(=O)NCC(N)=O)CSCC(=O)N[C@@H](Cc2ccc(C)cc2)C(=O)N(C)[C@@H](C)C(=O)N[C@@H](CC(N)=O)C(=O)N2CCC[C@H]2C(=O)N[C@@H](Cc2cnc[nH]2)C(=O)C[C@@H](CC(C)C)C(=O)N2C[C@H](O)C[C@H]2C(=O)N[C@@H](Cc2c[nH]c3ccccc23)C(=O)N[C@@H](CO)C(=O)N[C@@H](Cc2c[nH]c3ccccc23)C(=O)N1C [Example 7071] ({CH2CO}-[Phe(4-Me)][NMeA]NP[X10][Hyp]WSW[NMeNle][NMeNle]RCG-NH2; thioether N-13)
7,1 to 9.9 nM,"CCCC[C@H]1C(=O)N(C)[C@@H](CCCC)C(=O)N[C@@H](CN)C(=O)N[C@H](C(=O)NCC(N)=O)CSCC(=O)N[C@@H](Cc2ccc(O)cc2)C(=O)N(C)[C@@H](C)C(=O)N[C@@H](CC(=O)O)C(=O)N2CCC[C@H]2C(=O)N[C@@H](Cc2c[nH]cn2)C(=O)N[C@@H](CCC(=O)O)C(=O)N2C[C@H](O)C[C@H]2C(=O)N[C@@H](Cc2c[nH]c3ccccc23)C(=O)N[C@@H](CCN)C(=O)N[C@@H](Cc2cn(CC(=O)O)c3ccccc23)C(=O)N1C (single isomer, unassigned) [Example 5203]"
8,10 to 99.9 nM,"CCCC[C@H]1C(=O)N2CCOC[C@@H]2C(=O)N[C@@H](CC(=O)O)C(=O)N[C@@H](C(C)C)C(=O)N(C)[C@@H](Cc2ccccc2)C(=O)N[C@@H](CCC(=O)O)C(=O)N2C[C@@H](O)C[C@@H]2C(=O)N[C@@H](Cc2c[nH]c3ccccc23)C(=O)N[C@@H](Cc2ccc(O)cc2)C(=O)N[C@@H](CCCN)C(=O)N[C@H](C(=O)NCC(N)=O)CSCC(=O)N[C@@H](Cc2cc(F)c(F)c(F)c2)C(=O)N(C)[C@@H](Cc2ccccc2)C(=O)N1C [Example 9280] ({CH2CO}-[Phe(3,4,5-F3)][NMeF][NMeNle][X1]DV[NMeF]E[dHyp]WY[Orn]CG-NH2; thioether N-13)"
9,10 to 99.9 nM,CCCC[C@H]1C(=O)N(C)[C@@H](CCCC)C(=O)N[C@@H](CCCNC(=N)N)C(=O)NC(C(=O)NCC(N)=O)CSCC(=O)N[C@@H](Cc2ccc(O)cc2)C(=O)N(C)[C@@H](C)C(=O)N[C@@H](CC(N)=O)C(=O)N2CCC[C@H]2C(=O)N[C@@H](Cc2cnc[nH]2)C(=O)N[C@@H](CC(C)C)C(=O)N2CCC[C@H]2C(=O)N[C@@H](Cc2c[nH]c3ccccc23)C(=O)N[C@@H](CO)C(=O)N[C@@H](Cc2csc3ccccc23)C(=O)N1C (stereo partly drawn) [Example 10045] ({CH2CO}-Y[NMeA]NPHLPWS[Bta][NMeNle][NMeNle]R[ξC]G-NH2; thioether N-14)
10,1000 to 10000 nM,CCCC[C@H]1C(=O)N2CCC[C@@H]2C(=O)N[C@@H](CC(=O)O)C(=O)N[C@@H](C(C)C)C(=O)N(C)[C@@H](C(C)CC)C(=O)N[C@@H](CCC(N)=O)C(=O)N2CCC[C@@H]2C(=O)N[C@@H](Cc2c[nH]c3ccccc23)C(=O)N[C@@H](Cc2ccc(O)cc2)C(=O)N[C@@H](CC(C)C)C(=O)N[C@H](C(=O)NCC(N)=O)CSCC(=O)N[C@@H](Cc2ccc(F)cc2)C(=O)N(C)[C@@H](Cc2ccccc2)C(=O)N1C (stereo partly drawn) [Example 9260] ({CH2CO}-[Phe(4-F)][NMeF][NMeNle][dP]DV[NMeIle(3ξ)]Q[dP]WYLCG-NH2; thioether N-13)
11,1 to 9.9 nM,"CCCC[C@H]1C(=O)N2C[C@@H](O)C[C@@H]2C(=O)N[C@@H](CC(=O)O)C(=O)N[C@@H](C(C)C)C(=O)N(C)[C@@H](Cc2ccc(F)cc2)C(=O)N[C@@H](CCC(=O)O)C(=O)N2CCC[C@@H]2C(=O)N[C@@H](Cc2c[nH]c3ccccc23)C(=O)N[C@@H](Cc2ccc(O)cc2)C(=O)N[C@@H](CC(C)C)C(=O)N[C@H](C(=O)NCC(N)=O)CSCC(=O)N[C@@H](Cc2cc(F)c(F)c(F)c2)C(=O)N(C)[C@@H](Cc2ccccc2)C(=O)N1C [Example 10116] ({CH2CO}-[Phe(3,4,5-F3)][NMeF][NMeNle][dHyp]DV[NMePhe(4-F)]E[dP]WYLCG-NH2; thioether N-13)"
12,1000 to 10000 nM,CCCC[C@H]1NC(=O)[C@H](Cc2c[nH]c3ccccc23)NC(=O)[C@H](CO)NC(=O)[C@H](Cc2c[nH]c3ccccc23)NC(=O)[C@@H]2C[C@@H](O)CN2C(=O)[C@H](CCC(N)=O)NC(=O)[C@H](Cc2cnc[nH]2)NC(=O)[C@@H]2CCCN2C(=O)[C@H](CC(N)=O)NC(=O)[C@H](C)N(C)C(=O)[C@H](Cc2ccc(O)cc2)NC(=O)CSCC(C(=O)NCC(N)=O)NC(=O)[C@H](CCCNC(=N)N)NC(=O)[C@H](CCCC)N(C)C1=O (stereo partly drawn) [Example 10126] ({CH2CO}-Y[NMeA]NPHQ[Hyp]WSW[dNle][NMeNle]R[ξC]G-NH2; thioether N-14)
13,1 to 9.9 nM,CCCC[C@H]1C(=O)N(C)[C@@H](C)C(=O)N[C@@H](CCCNC(=N)N)C(=O)NC(C(=O)NCC(N)=O)CSCC(=O)N[C@@H](Cc2ccc(O)cc2)C(=O)N(C)[C@@H](C)C(=O)N[C@@H](CC(N)=O)C(=O)N2CCC[C@H]2C(=O)N[C@@H](CC(N)=O)C(=O)N[C@@H](CC(C)C)C(=O)N2C[C@H](O)C[C@H]2C(=O)N[C@@H](Cc2c[nH]c3ccccc23)C(=O)N[C@@H](CO)C(=O)N[C@@H](Cc2c[nH]c3ccccc23)C(=O)N1C (stereo partly drawn) [Example 9138] ({CH2CO}-Y[NMeA]NPNL[Hyp]WSW[NMeNle][NMeA]R[ξC]G-NH2; thioether N-14)
14,1 to 9.9 nM,CCCC[C@H]1C(=O)N(C)[C@@H](CCCC)C(=O)N[C@@H](CCC(=O)O)C(=O)N[C@H](C(=O)NCC(N)=O)CSCC(=O)N[C@@H](Cc2ccc(O)cc2)C(=O)N(C)[C@@H](C)C(=O)N[C@@H](CC(N)=O)C(=O)N2CCC[C@H]2C(=O)N[C@@H](CO)C(=O)N[C@@H](CCC(=O)O)C(=O)N2C[C@H](O)C[C@H]2C(=O)N[C@@H](Cc2c[nH]c3ccccc23)C(=O)N[C@@H](CCC(=O)O)C(=O)N[C@@H](Cc2c[nH]c3ccccc23)C(=O)N1C [Example 5196] ({CH2CO}-Y[NMeA]NPSE[Hyp]WEW[NMeNle][NMeNle]ECG-NH2; thioether N-14)

# Same assay, conditions: PD-L1-His 10 nM, PD-1-Ig 20 nM; read-out: HTRF Human PD-L1/PD-1 Binding Assay IC50
row,IC50,SMILES
1,1860 nM,CCCC[C@H]1C(=O)N(C)CC(=O)N[C@@H](CC(=O)O)C(=O)N[C@@H](CCc2ccccc2)C(=O)N(C)[C@@H](Cc2ccccc2)C(=O)N[C@@H](Cc2ccc(O)cc2)C(=O)N(C)CC(=O)N[C@@H](Cc2c[nH]c3ccccc23)C(=O)N[C@@H](Cc2ccc(O)cc2)C(=O)N[C@@H](CC(C)C)C(=O)N[C@H](C(=O)NCC(N)=O)CSCC(=O)N[C@@H](Cc2ccccc2)C(=O)N(C)[C@@H](Cc2ccccc2)C(=O)N1C [Example 3226] ({CH2CO}-F[NMeF][NMeNle][Sar]D[hPhe][NMeF]Y[Sar]WYLCG-NH2; thioether N-13)
